Laboratory results reported in patent US12371424B2, “Processes for the preparation of furazanobenzimidazoles and crystalline forms thereof” (Glioblastoma Foundation, Inc., priority 2017, dated 2025).

What was measured:
[1] = Dynamic vapor sorption (DVS) moisture sorption isotherm; type: physicochemical; settings: for water absorption up to 85% RH / water absorption up to 95% RH: DVS, ca. 25° C.
Experimental: Differences in hygroscopicity of the various forms of a solid material provided a measure of their relative stability at increasing relative humidity. Moisture sorption isotherms were obtained using a DVS-1 system from Surface Measurement Systems (London, UK). The relative humidity was varied during sorption-desorption (see specific experiment) at a constant temperature of ca. 25° C. At the end of the DVS experiment the sample was measured by XRPD.
The dynamic vapor sorption (DVS) analysis for the crystalline Form E of the dichloride salt of the compound of formula I is depicted in FIG. 11.
See Example 5f for experimental details. The DVS analysis for the crystalline System A+M of the dichloride salt of the compound of formula I is depicted in FIG. 35.

[2] = Thermodynamic pH-dependent solubility; settings: room temperature, 24 h
Experimental: The thermodynamic pH-dependent solubility was performed in unbuffered water as well as using standard Merck Titriplex® buffers (Merck Titrisol® buffer pH 3 with citrate and HCl; Merck Titrisol® buffer pH 4 with citrate and HCl; Merck Titrisol® buffer pH 5 with citrate and NaOH; Merck Titrisol® buffer pH 6 with citrate and NaOH; Merck Titrisol® buffer pH 7 with phosphate; for buffering at pH 4.5 a 50/50 mixture of buffers for pH 4 and 5 was used; for buffering at pH 5.5 a 50/50 mixture of buffers for pH 5 and 6 was used).
For each experiment, an 8 mL screw cap vial was prepared with the polymorphic material, the buffer solvent according to the target pH and a magnetic stirring bar. Each pH data point was determined in triplicate with a target pH of 3, 4, 4.5, 5, 5.5 and 7. The pH was measured (Fisherbrand pH meter Hydrus 400, a three point calibration was performed prior to measurement) and adjusted with 1M NaOH solution. […] After 24 h the pH was monitored and the slurries were centrifuged for 10 min at 3000 rpm to separate the solids and liquids and filtered (0.45 micron disk filter). […] Concentrations of the compound of formula I were determined by High Performance Liquid Chromatography with Diode Array Detection analysis (HPLC-DAD). […]
HPLC testing was performed on Agilent 1100 with DAD detector at 280 nm wavelength. A LOQ of 11 μg/mL was determined, linearity is given up to ca. 0.7 mg/mL. […]

[3] = Polymorphic stability (XRPD, climate chamber storage)
Experimental: XRPD patterns were obtained using a high-throughput XRPD set-up. The plates were mounted on a Bruker GADDS diffractometer equipped with a Hi-Star area detector. The XRPD platform was calibrated using Silver Behenate for the long d-spacings and Corundum for the short d-spacings. Data collection was carried out at room temperature using monochromatic CuKo radiation in the 20 region between 1.5° and 41.5°, which is the most distinctive part of the XRPD pattern. The diffraction pattern of each well was collected in two 20 ranges (1.5° 20≤21.5° for the first frame, and 19.5°% 20≤41.5° for the second) with an exposure time of 90 s for each frame. No background subtraction or curve smoothing was applied to the XRPD patterns. The carrier material used during XRPD analysis was transparent to X-rays and contributed only slightly to the background.
For variable humidity (VH) and variable temperature (VT) experiments a ANSYCO HT chamber was used, installed within a D8 Advance system diffractometer (Bruker) designed with Bragg-Brentano geometry and equipped with LynxEye solid state detector. The radiation used for collecting the data was CuKαl (2=1.54056 Å) monochromatized by germanium crystal. The material was placed on a fixed sample holder that was mounted inside the chamber.
VH-XRPD: The humidity was applied locally and varied from 10 to 70% (dew point). […]

hysteresis in DVS ([1]; isothermic (24.9° C.) DVS, 0→95→0% RH) | maximum mass change ([1]; isothermic (24.9° C.) DVS, 0→95→0% RH in steps of 10% RH, at 95% RH) [%] | solubility (in words) [2] | polymorphic stability (in words) ([3]; listed as System A+X) | water absorption up to 85% RH [1] | water absorption up to 95% RH [1] | polymorphic form after 2 days at 40° C./75% RH ([3]; wet solid treated 2 days at 40° C./75% RH) | SMILES
No hysteresis was observed | 34 |  |  |  |  |  | N#CCCNc1nonc1-c1nc2ccccc2n1CC(=O)c1ccc(NC(=O)[C@@H](N)CCCCN)cc1 [Mixture A1+M4]
 |  | good solubility | polymorphically stable | ca. 22% | < 34% |  | N#CCCNc1nonc1-c1nc2ccccc2n1CC(=O)c1ccc(NC(=O)[C@@H](N)CCCCN)cc1 [System A+M]
 |  |  |  | 1% | ca. 4% | Form E | N#CCCNc1nonc1-c1nc2ccccc2n1CC(=O)c1ccc(NC(=O)[C@@H](N)CCCCN)cc1 [Form E]
